# Laboratory results as given in article PMC10539439 (Pharmacological Reports, 2023).
# Values joined by “and” are separate entries in the source; they are usually repeats but may differ in a detail not shown here. Equal values may be shown once.
# Key:
# Type in all cases: in vivo, rat
# [1] = Obesity induced with a high-fat diet: body weight; conditions: for effect on body weight (in words): vs obese control; for body weight of rat in g in particular day / change of body weight: hight-fat diet; for change of body weight: individual rats
# Description: The experiments were carried out on male Wistar rats ([…]). Initial body weight was: 140–160 g obesity model or 190–220 g rats in which the obesity model was not induced. The animals were housed in pairs in plastic cages in constant temperature facilities exposed to a light–dark cycle; water and food were available ad libitum. The control and experimental groups consisted of six-to-eight animals each. All experiments were carried out according to the guidelines of the Jagiellonian University Animal Use and Care Committee and were approved for realization (Permissions No. 54/2012 and No. 128/2017).
# (§1) Male Wistar rats were housed in pairs and fed a high-fat diet consisting of a 40% fat blend (Labofeed B with 40% lard, Morawski, Manufacturer Feed, Poland) for 14 weeks, with water available ad libitum. Control rats were fed a standard diet (Labofeed B, Morawski Manufacturer Feed, Poland). After 10 weeks, rats with obesity-induced via their diet were randomly divided into three equal groups that had the same mean body weight and were treated ip with test compounds at doses of 2 or 5 mg/kg b.w./day (high-fat diet + 4OHGuanabenz) or control group: vehicle–water 0.3 ml/kg (high-fat diet + vehicle = obesity control group) once a day in the morning between 9:00 AM and 10:00 AM for 25 days. Control rats were maintained on a standard diet, with ip administration of vehicle – water (standard diet + vehicle = control group).
# (§2) The high-fat diet contained 550 kcal and the standard diet 280 kcal per 100 g.
# [2] = Food intake of rats fed a high-fat diet; conditions: for food intake: high-fat diet, groups (cages) 1-3
# Description: as §1, §2
# Food intake was measured three times a week, immediately before drug administration. In this target, food was provided to the animals in a certain amount (100 g/cage). The weight of food was measured using dedicated scale (WPT 1C, RADWAG Wagi Elektroniczne, Poland). Next, the total amount of food that the animals had not eaten during that period of time was collected from each cage and weighed, and then, the data were recorded. The next portion of food was subsequently weighed before serving, and so on.
# [3] = Spontaneous activity in the home cage (RFID, TraffiCage); conditions: for activity: hight-fat diet, 5mg/kg, after first administration, 5 mg/kg
# Description: Rat spontaneous activity was monitored for 24 h on the 1st and 24th (after multiple administrations of tested compound or vehicle) day of treatment with a radio-frequency identification system (RFID system)—TraffiCage (TSE-Systems, Germany)—transponder-based activity monitoring under group housing. The animals had subcutaneously implanted transponder identification with RFID code, which allowed the presence and time spent in different areas of the home cage to be recorded. The data were collected with a dedicated platform, placed under the home cage, containing five RFID antennas (six cage areas) reading telemetrically the presence of RFID chips and stored for analysis with a dedicated computer program. The animals during the monitoring of spontaneous activity were in home cages and always had free access to food and water.
compound,measurement,setting,value
"Cl.N=C(N)NN=Cc1c(Cl)cc(O)cc1Cl [4-OH-Guanabenz, 2-[(2,6-Dichloro-4-hydroxyphenyl)methylene]hydrazinecarboximidamide Hydrochloride]",effect on body weight (in words),"[1]; high-fat diet rats, 2 mg/kg b.w. ip, 25 days","did not cause weight loss, but significantly reduced weight gain"
same,weight loss compared to the baseline weight before treatment,"[1]; high-fat diet rats, 5 mg/kg b.w. ip once a day, 25 days",approximately 14.8%
same,effect on body weight (in words),"[1]; high-fat diet rats, 5 mg/kg b.w. ip, 25 days",significant decrease in body weight
same,body weight of rat in g in particular day,"[1]; 2mg/kg, day 1, individual rats, 2 mg/kg",405 g (3×) and 415 g and 410 g (2×)
same,body weight of rat in g in particular day,"[1]; 2mg/kg, day 3, individual rats, 2 mg/kg",405 g (2×) and 410 g and 414 g (2×) and 406 g
same,body weight of rat in g in particular day,"[1]; 2mg/kg, day 5, individual rats, 2 mg/kg",409 g (2×) and 411 g and 413 g (2×) and 415 g
same,body weight of rat in g in particular day,"[1]; 2mg/kg, day 7, individual rats, 2 mg/kg",408 g (2×) and 414 g and 412 g (2×) and 416 g
same,body weight of rat in g in particular day,"[1]; 2mg/kg, day 9, individual rats, 2 mg/kg",406 g (2×) and 414 g and 415 g (2×) and 422 g
same,body weight of rat in g in particular day,"[1]; 2mg/kg, day 11, individual rats, 2 mg/kg",412 g (2×) and 413 g and 417 g (2×) and 423 g
same,body weight of rat in g in particular day,"[1]; 2mg/kg, day 13, individual rats, 2 mg/kg",409 g (2×) and 418 g and 414 g (2×) and 425 g
same,body weight of rat in g in particular day,"[1]; 2mg/kg, day 15, individual rats, 2 mg/kg",410 g (2×) and 422 g and 401 g (2×) and 428 g
same,body weight of rat in g in particular day,"[1]; 2mg/kg, day 17, individual rats, 2 mg/kg",412 g (2×) and 422 g and 403 g (2×) and 430 g
same,body weight of rat in g in particular day,"[1]; 2mg/kg, day 19, individual rats, 2 mg/kg",412 g (2×) and 424 g and 407 g (2×) and 433 g
same,body weight of rat in g in particular day,"[1]; 2mg/kg, day 21, individual rats, 2 mg/kg",415 g (2×) and 429 g and 412 g (2×) and 434 g
same,body weight of rat in g in particular day,"[1]; 2mg/kg, day 23, individual rats, 2 mg/kg",408 g (2×) and 434 g and 415 g (2×) and 435 g
same,body weight of rat in g in particular day,"[1]; 2mg/kg, day 25, individual rats, 2 mg/kg",405 g (2×) and 432 g and 415 g (2×) and 439 g
same,change of body weight,[1]; 2mg/kg,34 g/25days and 5 g/25days and 0 g/25days and 17 g/25days
same,body weight of rat in g in particular day,"[1]; 5mg/kg, day 1, individual rats, 5 mg/kg",378 g and 415 g and 418 g and 409 g and 381 g and 457 g
same,body weight of rat in g in particular day,"[1]; 5mg/kg, day 3, individual rats, 5 mg/kg",367 g and 412 g and 410 g and 387 g and 366 g and 443 g
same,body weight of rat in g in particular day,"[1]; 5mg/kg, day 5, individual rats, 5 mg/kg",358 g and 396 g and 405 g and 374 g and 360 g and 427 g
same,body weight of rat in g in particular day,"[1]; 5mg/kg, day 7, individual rats, 5 mg/kg",344 g and 387 g and 385 g and 364 g and 347 g and 411 g
same,body weight of rat in g in particular day,"[1]; 5mg/kg, day 9, individual rats, 5 mg/kg",339 g and 377 g and 376 g and 357 g and 340 g and 394 g
same,body weight of rat in g in particular day,"[1]; 5mg/kg, day 11, individual rats, 5 mg/kg",335 g and 372 g and 373 g and 350 g and 340 g and 388 g
same,body weight of rat in g in particular day,"[1]; 5mg/kg, day 13, individual rats, 5 mg/kg",326 g and 364 g and 373 g and 348 g and 336 g and 386 g
same,body weight of rat in g in particular day,"[1]; 5mg/kg, day 15, individual rats, 5 mg/kg",327 g and 363 g and 377 g and 350 g and 334 g and 384 g
same,body weight of rat in g in particular day,"[1]; 5mg/kg, day 17, individual rats, 5 mg/kg",326 g and 362 g and 384 g and 348 g and 331 g and 386 g
same,body weight of rat in g in particular day,"[1]; 5mg/kg, day 19, individual rats, 5 mg/kg",327 g and 356 g and 377 g (2×) and 349 g and 333 g
same,body weight of rat in g in particular day,"[1]; 5mg/kg, day 21, individual rats, 5 mg/kg",314 g and 353 g and 370 g and 334 g and 328 g and 367 g
same,body weight of rat in g in particular day,"[1]; 5mg/kg, day 23, individual rats, 5 mg/kg",310 g and 355 g and 373 g and 342 g and 328 g and 365 g
same,body weight of rat in g in particular day,"[1]; 5mg/kg, day 25, individual rats, 5 mg/kg",315 g and 357 g and 378 g and 348 g and 325 g and 370 g
same,change of body weight,[1]; 5mg/kg,-56 g/25days and -87 g/25days and -63 g/25days and -58 g/25days and -40 g/25days and -61 g/25days
same,effect on calories consumed (in words),"[2]; high-fat diet rats, ip at both doses (2 or 5 mg/kg b.w.), vs obesity control group",reduced the number of calories consumed
same,food intake,"[2]; 2mg/kg, week 1, 2 mg/kg",995.5 kcal/2rats and 924 kcal/2rats and 960 kcal/2rats
same,food intake,"[2]; 2mg/kg, week 2, 2 mg/kg",891 kcal/2rats and 654.5 kcal/2rats and 772.5 kcal/2rats
same,food intake,"[2]; 2mg/kg, week 3, 2 mg/kg",880 kcal/2rats and 863.5 kcal/2rats and 871.5 kcal/2rats
same,food intake,"[2]; 5mg/kg, week 1, 5 mg/kg",363 kcal/2rats and 478.5 kcal/2rats and 346.5 kcal/2rats
same,food intake,"[2]; 5mg/kg, week 2, 5 mg/kg",561 kcal/2rats and 621.5 kcal/2rats and 693 kcal/2rats
same,food intake,"[2]; 5mg/kg, week 3, 5 mg/kg",599.5 kcal/2rats and 594 kcal/2rats and 665.5 kcal/2rats
same,activity,"[3]; hour 2, individual rats",241 counts and 466 counts and 407 counts and 76 counts and 54 counts
same,activity,"[3]; hour 3, individual rats",175 counts and 744 counts and 1081 counts and 269 counts and 412 counts
same,activity,"[3]; hour 4, individual rats",468 counts and 421 counts and 262 counts and 105 counts and 179 counts
same,activity,"[3]; hour 5, individual rats",721 counts and 62 counts and 232 counts and 2 counts and 78 counts
same,activity,"[3]; hour 6, individual rats",248 counts and 6* counts and 445 counts and 569 counts and 80 counts
same,activity,"[3]; hour 7, individual rats",1058 counts and 287 counts and 302 counts and 211 counts and 276 counts
same,activity,"[3]; hour 8, individual rats",513 counts and 751 counts and 432 counts (2×) and 306 counts
same,activity,"[3]; hour 9, individual rats",853 counts and 240 counts and 521 counts and 547 counts and 173 counts
same,activity,"[3]; hour 10, individual rats",276 counts and 938 counts and 536 counts and 556 counts and 142 counts
same,activity,"[3]; hour 11, individual rats",504 counts and 558 counts and 708 counts and 326 counts and 403 counts
same,activity,"[3]; hour 12, individual rats",347 counts and 440 counts and 410 counts and 404 counts and 692 counts
same,activity,"[3]; hour 13, individual rats",674 counts and 446 counts and 516 counts and 428 counts and 684 counts
same,activity,"[3]; hour 14, individual rats",437 counts and 1077* counts and 632 counts and 394 counts and 897 counts
same,activity,"[3]; hour 15, individual rats",692 counts and 273 counts and 929 counts and 462 counts and 743 counts
same,activity,"[3]; hour 16, individual rats",387 counts and 825 counts and 409 counts and 821 counts and 664 counts
same,activity,"[3]; hour 17, individual rats",618 counts and 1081 counts and 250 counts and 383 counts and 813 counts
same,activity,"[3]; hour 18, individual rats",339 counts and 628 counts and 260 counts and 133 counts and 576 counts
same,activity,"[3]; hour 19, individual rats",608 counts and 953 counts and 971 counts and 592 counts and 271 counts
same,activity,"[3]; hour 20, individual rats",298 counts and 398 counts and 614 counts and 684 counts and 663 counts
same,activity,"[3]; hour 21, individual rats",215 counts and 344 counts and 275 counts and 266 counts and 475 counts
same,effect on spontaneous activity (in words),"[3]; obese rats, after the first and 24th administration, 5 mg/kg b.w.",no effect
